# Values quoted from earlier work, collected in US5283250A, “Quinolinyl/quinolinylalkyl-N-terminal amino hydroxy” (G. D. Searle & Co., priority 1991, dated 1994).
# Square brackets hold non-standard residues; d marks the D form. Peptide text beside a SMILES is read from it. * marks the point of attachment. Sta = CC(C)C[C@H](N)[C@@H](O)CC(=O)O; Isovaleryl = CC(C)CC(=O)*
# What was measured:
# pepsin = settings: Umezawa et al 1970
# renin = settings: Umezawa et al 1970
# cathepsin D = settings: Umezawa et al 1970
# hog renin = settings: after injection of hog renin into nephrectomized rats; Gross et al 1971
smiles,measurement,setting,value
CC(C)CC(=O)N[C@H](C(=O)N[C@H](C(=O)N[C@@H](CC(C)C)[C@@H](O)CC(=O)N[C@@H](C)C(=O)N[C@@H](CC(C)C)[C@@H](O)CC(=O)O)C(C)C)C(C)C [pepstatin] (Isovaleryl-VV[Sta]A[Sta]-OH),inhibition of pepsin (in words),pepsin,inhibitor
same,inhibition of renin (in words),renin,inhibitor
same,inhibition of cathepsin D (in words),cathepsin D,inhibitor
same,blood pressure in vivo (in words),hog renin,reduce blood pressure in vivo
same,inhibition of acid proteases in addition to renin (in words),acid proteases,inhibiting acid proteases in addition to renin
